In patent US20230143612A1 (Arbutus Biopharma Corporation, priority 2020, published 2023):

Molecular target: PD-L1 His protein / PD-1 Fc protein (Homo sapiens, UniProt Q9NZQ7)
Assay: HTRF Assay (PD-1/PD-L1 interaction)
Format: binding
Settings: PD-L1 His 6 nM, PD-1 Fc 6 nM
How it was run: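 Compounds tested from 20 μM down to 0.001 μM (3-fold) against 6 nM PD-L1 His and 6 nM PD-1 Fc, 15 min room temperature incubation. Detection after 1 h at room temperature with Tb cryptate anti-6HIS and XL665 anti-human IgG reagents (mixture at 0.35 nM and 6.7 nM), HTRF signal.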

Chain of PD-L1 His protein / PD-1 Fc protein (Q9NZQ7 19-238 limits assumed): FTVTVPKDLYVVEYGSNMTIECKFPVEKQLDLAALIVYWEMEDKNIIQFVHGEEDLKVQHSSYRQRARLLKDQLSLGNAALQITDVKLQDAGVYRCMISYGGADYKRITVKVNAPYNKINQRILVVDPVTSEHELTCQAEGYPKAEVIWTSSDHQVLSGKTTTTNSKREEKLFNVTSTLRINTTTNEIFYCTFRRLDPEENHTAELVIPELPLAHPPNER

Compound: COc1nc(/C=C2\CCc3c2cccc3-c2cccc(-c3ccn4c(=O)c(CNC[C@@H]5CCC(=O)N5)cnc4c3)c2Cl)c(Cl)cc1CNC[C@@H]1CCC(=O)N1 [Example 177, 8-(2-Chloro-3-((E)-1-((3-chloro-6-methoxy-5-(((((S)-5-oxopyrrolidin-2-yl)methyl)amino)methyl)pyridin-2-yl)methylene)-2,3-dihydro-1H-inden-4-yl)phenyl)-3-(((((S)-5-oxopyrrolidin-2-yl)methyl)amino)methyl)-4H-pyrido[1,2-a]pyrimidin-4-one]
- IC50: 5 nM

Compound: COc1nc(-c2cccc(-c3cccc(-c4ccn5c(=O)c(CNC[C@@H]6CCC(=O)N6)cnc5c4)c3Cl)c2Cl)ccc1C1=NCC(O)CN1 (stereo partly drawn) [Example 178, 8-(2,2′-Dichloro-3′-(5-(5-hydroxy-1,4,5,6-tetrahydropyrimidin-2-yl)-6-methoxypyridin-2-yl)-[1,1′-biphenyl]-3-yl)-3-(((((S)-5-oxopyrrolidin-2-yl)methyl)amino)methyl)-4H-pyrido[1,2-a]pyrimidin-4-one]
- IC50: 3.5 nM

Compound: COc1nc(-c2cccc(-c3cccc(-c4ccn5c(=O)c(CNC[C@H](C)O)c(C)nc5c4)c3Cl)c2Cl)ccc1CNC[C@H](C)O [Example 181, 8-(2,2′-Dichloro-3′-(5-((((S)-2-hydroxypropyl)amino)methyl)-6-methoxypyridin-2-yl)-[1,1′-biphenyl]-3-yl)-3-((((S)-2-hydroxypropyl)amino)methyl)-2-methyl-4H-pyrido[1,2-a]pyrimidin-4-one]
- IC50: 3.8 nM

Compound: COc1nc(-c2cccc(-c3cccc(-c4ccn5c(=O)c(CNCCC(=O)O)cnc5c4)c3Cl)c2Cl)ccc1CNC[C@@H]1CCC(=O)N1 [Example 182, (S)-3-(((8-(2,2′-Dichloro-3′-(6-methoxy-5-((((5-oxopyrrolidin-2-yl)methyl)amino)methyl)pyridin-2-yl)-[1,1′-biphenyl]-3-yl)-4-oxo-4H-pyrido[1,2-a]pyrimidin-3-yl)methyl)amino)propanoic acid]
- IC50: 0.1 nM

Compound: COc1nc(-c2cccc(-c3cccc(-c4cc(C)n5c(=O)c(CNC[C@@H]6CCC(=O)N6)cnc5c4)c3Cl)c2Cl)ccc1CNC[C@@H]1CCC(=O)N1 [Example 183, 8-(2,2′-Dichloro-3′-(6-methoxy-5-(((((S)-5-oxopyrrolidin-2-yl)methyl)amino)methyl)pyridin-2-yl)-[1,1′-biphenyl]-3-yl)-6-methyl-3-(((((S)-5-oxopyrrolidin-2-yl)methyl)amino)methyl)-4H-pyrido[1,2-a]pyrimidin-4-one]
- IC50: 44 nM

Compound: COc1nc(-c2cccc(-c3cccc(-c4ccn5c(=O)c(CNC(C)(C)C(=O)O)cnc5c4)c3Cl)c2Cl)ccc1CNC[C@@H]1CCC(=O)N1 [Example 184, (S)-2-(((8-(2,2′-Dichloro-3′-(6-methoxy-5-((((5-oxopyrrolidin-2-yl)methyl)amino)methyl)pyridin-2-yl)-[1,1′-biphenyl]-3-yl)-4-oxo-4H-pyrido[1,2-a]pyrimidin-3-yl)methyl)amino)-2-methylpropanoic acid]
- IC50: 0.1 nM

Compound: COc1nc(-c2cccc(-c3cccc(-c4ccn5c(=O)c(CNC[C@H](C)O)cnc5c4)c3Cl)c2Cl)ccc1CNC[C@H](C)O [Example 185, 8-(2,2′-Dichloro-3′-(5-((((S)-2-hydroxypropyl)amino)methyl)-6-methoxypyridin-2-yl)-[1,1′-biphenyl]-3-yl)-3-((((S)-2-hydroxypropyl)amino)methyl)-4H-pyrido[1,2-a]pyrimidin-4-one]
- IC50: 1.2 nM

Compound: COc1nc(-c2cccc(-c3cccc(-c4ccn5c(=O)c(CNC[C@@H](C)O)cnc5c4)c3Cl)c2Cl)ccc1CNC[C@@H](C)O [Example 186, 8-(2,2′-Dichloro-3′-(5-((((R)-2-hydroxypropyl)amino)methyl)-6-methoxypyridin-2-yl)-[1,1′-biphenyl]-3-yl)-3-((((R)-2-hydroxypropyl)amino)methyl)-4H-pyrido[1,2-a]pyrimidin-4-one]
- IC50: 6.4 nM

Compound: COc1nc(-c2cccc(-c3cccc(-c4ccn5c(=O)c(CN(C)CC(=O)O)cnc5c4)c3Cl)c2Cl)ccc1CNC[C@@H]1CCC(=O)N1 [Example 187, (S)—N-((8-(2,2′-Dichloro-3′-(6-methoxy-5-((((5-oxopyrrolidin-2-yl)methyl)amino)methyl)pyridin-2-yl)-[1,1′-biphenyl]-3-yl)-4-oxo-4H-pyrido[1,2-a]pyrimidin-3-yl)methyl)-N-methylglycine]
- IC50: 0.1 nM

Compound: COc1nc(-c2cccc(-c3cccc(-c4ccn5c(=O)c(CN6CC(C(=O)O)C6)cnc5c4)c3Cl)c2Cl)ccc1CNCCO [Example 188, 1-((8-(2,2′-Dichloro-3′-(5-(((2-hydroxyethyl)amino)methyl)-6-methoxypyridin-2-yl)-[1,1′-biphenyl]-3-yl)-4-oxo-4H-pyrido[1,2-a]pyrimidin-3-yl)methyl)azetidine-3-carboxylic acid]
- IC50: 0.1 nM

Compound: COc1nc(-c2cccc(-c3cccc(-c4ccn5c(=O)c(CNCC(=O)O)cnc5c4)c3Cl)c2Cl)ccc1CNC[C@@H]1CCC(=O)N1 [Example 189, (S)-((8-(2,2′-Dichloro-3′-(6-methoxy-5-((((5-oxopyrrolidin-2-yl)methyl)amino)methyl)pyridin-2-yl)-[1,1′-biphenyl]-3-yl)-4-oxo-4H-pyrido[1,2-a]pyrimidin-3-yl)methyl)glycine]
- IC50: 0.1 nM

Compound: COc1nc(-c2cccc(-c3cccc(-c4ccn5c(=O)c(CN(C)[C@@H](C)C(=O)O)cnc5c4)c3Cl)c2Cl)ccc1CNC[C@@H]1CCC(=O)N1 [Example 190, N-((8-(2,2′-Dichloro-3′-(6-methoxy-5-(((((S)-5-oxopyrrolidin-2-yl)methyl)amino)methyl)pyridin-2-yl)-[1,1′-biphenyl]-3-yl)-4-oxo-4H-pyrido[1,2-a]pyrimidin-3-yl)methyl)-N-methyl-L-alanine]
- IC50: 0.1 nM

Compound: COc1nc(-c2cccc(-c3cccc(-c4ccn5c(=O)c(CN[C@@H](CO)C(=O)O)cnc5c4)c3Cl)c2Cl)ccc1CNCCO [Example 191, ((8-(2,2′-Dichloro-3′-(5-(((2-hydroxyethyl)amino)methyl)-6-methoxypyridin-2-yl)-[1,1′-biphenyl]-3-yl)-4-oxo-4H-pyrido[1,2-a]pyrimidin-3-yl)methyl)-L-serine]
- IC50: 0.1 nM

Compound: COC(=O)[C@H]1CCN(Cc2cnc3cc(-c4cccc(-c5cccc(-c6ccc(CNC[C@@H]7CCC(=O)N7)c(OC)n6)c5Cl)c4Cl)ccn3c2=O)C1 [Example 192, (S)-Methyl 1-((8-(2,2′-dichloro-3′-(6-methoxy-5-(((((S)-5-oxopyrrolidin-2-yl)methyl)amino)methyl)pyridin-2-yl)-[1,1′-biphenyl]-3-yl)-4-oxo-4H-pyrido[1,2-a]pyrimidin-3-yl)methyl)pyrrolidine-3-carboxylate]
- IC50: 0.8 nM

Compound: COc1nc(-c2cccc(-c3cccc(-c4ccn5c(=O)c(CNC[C@H](C)O)c(C)nc5c4)c3Cl)c2Cl)ccc1CNC[C@@H]1CCC(=O)N1 [Example 193, 8-(2,2′-Dichloro-3′-(6-methoxy-5-(((((S)-5-oxopyrrolidin-2-yl)methyl)amino)methyl)pyridin-2-yl)-[1,1′-biphenyl]-3-yl)-3-((((S)-2-hydroxypropyl)amino)methyl)-2-methyl-4H-pyrido[1,2-a]pyrimidin-4-one]
- IC50: 0.1 nM

Compound: COc1nc(-c2cccc(-c3cccc(-c4ccc5c(OC)c(CNC[C@@H]6CCC(=O)N6)cc(Cl)c5n4)c3Cl)c2Cl)ccc1CNC[C@@H]1CCC(=O)N1 [Example 194, (S)-5-((((8-Chloro-2-(2,2′-dichloro-3′-(6-methoxy-5-(((((S)-5-oxopyrrolidin-2-yl)methyl)amino)methyl)pyridin-2-yl)-[1,1′-biphenyl]-3-yl)-5-methoxyquinolin-6-yl)methyl)amino)methyl)pyrrolidin-2-one]
- IC50: 26 nM

Compound: COc1nc(-c2cccc(-c3cccc(-c4ccn5c(=O)c(CNC[C@@H](C)O)cnc5c4)c3Cl)c2Cl)ccc1CNC[C@H](C)O [Example 195, 8-(2,2′-Dichloro-3′-(5-((((S)-2-hydroxypropyl)amino)methyl)-6-methoxypyridin-2-yl)-[1,1′-biphenyl]-3-yl)-3-((((R)-2-hydroxypropyl)amino)methyl)-4H-pyrido[1,2-a]pyrimidin-4-one]
- IC50: 2.5 nM

Compound: COc1nc(-c2cccc(-c3cccc(-c4ccn5c(=O)c(CNC[C@H](C)O)cnc5c4)c3Cl)c2Cl)ccc1CNC[C@@H](C)O [Example 196, 8-(2,2′-Dichloro-3′-(5-((((R)-2-hydroxypropyl)amino)methyl)-6-methoxypyridin-2-yl)-[1,1′-biphenyl]-3-yl)-3-((((S)-2-hydroxypropyl)amino)methyl)-4H-pyrido[1,2-a]pyrimidin-4-one]
- IC50: 2.8 nM

Compound: COc1nc(-c2cccc(-c3cccc(-c4ccn5c(=O)c(CNC[C@@H]6CCC(=O)N6)cnc5c4)c3Cl)c2Cl)ccc1CNC[C@H](C)O [Example 197, 8-(2,2′-Dichloro-3′-(5-((((S)-2-hydroxypropyl)amino)methyl)-6-methoxypyridin-2-yl)-[1,1′-biphenyl]-3-yl)-3-(((((S)-5-oxopyrrolidin-2-yl)methyl)amino)methyl)-4H-pyrido[1,2-a]pyrimidin-4-one]
- IC50: 0.2 nM

Compound: COc1nc(-c2cccc(-c3cccc(-c4ccn5c(=O)c(CNC[C@@H]6CCC(=O)N6)cnc5c4)c3Cl)c2Cl)ccc1CNC[C@@H](C)O [Example 198, 8-(2,2′-Dichloro-3′-(5-((((R)-2-hydroxypropyl)amino)methyl)-6-methoxypyridin-2-yl)-[1,1′-biphenyl]-3-yl)-3-(((((S)-5-oxopyrrolidin-2-yl)methyl)amino)methyl)-4H-pyrido[1,2-a]pyrimidin-4-one]
- IC50: 0.3 nM

Compound: CNC(=O)CN(C)Cc1cnc2cc(-c3cccc(-c4cccc(-c5ccc(CNC[C@@H]6CCC(=O)N6)c(OC)n5)c4Cl)c3Cl)ccn2c1=O [Example 200, (S)-2-(((8-(2,2′-Dichloro-3′-(6-methoxy-5-((((5-oxopyrrolidin-2-yl)methyl)amino)methyl)pyridin-2-yl)-[1,1′-biphenyl]-3-yl)-4-oxo-4H-pyrido[1,2-a]pyrimidin-3-yl)methyl)(methyl)amino)-N-methylacetamide]
- IC50: 0.1 nM
